# Target: T1, KCNQ2/3 channels (Homo sapiens, UniProt O43525+O43526)
# T1 construct: expressed in transfected cells; host or cells: CHO-K1
# Test: Fluorescence assay using a voltage-sensitive dye
# Type: cell-based
# Details: 10 μmol test substance; CHO-K1 cells expressing KCNQ2/3 channels; agonistic activity; read-out: % Stimulation [10 μmol] Average
# Description: Fluorescence Assay Using a Voltage-Sensitive Dye
# […] CHO-K1 cells expressing KCNQ2/3 channels are cultivated adherently at 37° C., 5% CO2 and 95% humidity in cell culture bottles (e.g. 80 cm^2 TC flasks, Nunc) with MEM Alpha Medium (1×, liquid, Invitrogen, #22571), 10% foetal calf serum (FCS) (Invitrogen, #10270-106, heat-inactivated) and the necessary selection antibiotics. Before being spread out for the measurements, the cells are washed with a 1×DPBS buffer without Ca^2+/Mg^2+ (e.g. Invitrogen, #14190-094) and detached from the bottom of the culture vessel by means of Accutase (PAA Laboratories, #L11-007) (incubation with Accutase for 15 min at 37° C.). The cell count then present is determined using a CASY™ cell counter (TCC model, Schärfe System) in order subsequently to apply 20,000 cells/well/100 μl of the described nutrient medium to 96-well measuring plates of the Corning™ CellBIND™ type (flat clear-bottom black polystyrene microplates, #3340). Incubation is then carried out for one hour at room temperature, without gassing or adjusting the humidity, followed by incubation for 24 hours at 37° C., 5% CO2 and 95% humidity.
# The voltage-sensitive fluorescent dye from the Membrane Potential Assay Kit (Red bulk format part R8123 for FLIPR, Molecular Devices™) is prepared by dissolving the contents of a vessel of Membrane Potential Assay Kit Red Component A in 200 ml of extracellular buffer (ES buffer, 120 mM NaCl, 1 mM KCl, 10 mM HEPES, 2 mM CaCl2, 2 mM MgCl2, 10 mM glucose; pH 7.4). After removal of the nutrient medium, the cells are washed with 200 μl of ES buffer, then covered with a layer of 100 μl of the dye solution prepared above and incubated for 45 min at room temperature with exclusion of light.
# The fluorescence measurements are carried out with a BMG Labtech FLUOstar™ or BMG Labtech POLARstar™ instrument (525 nm excitation, 560 nm emission, bottom-read mode). After incubation of the dye, 50 μl of the substances to be tested in the desired concentrations, or 50 μl of ES buffer for control purposes, are introduced into separate cavities of the measuring plate and incubated for 30 min at room temperature whilst being shielded from light. The fluorescence intensity of the dye is then measured for 5 min and the fluorescence value F1 of each well is thus determined at a given, constant time. 15 μl of a […] KCl solution ([…]) are then added to each well. The change in fluorescence is subsequently measured until all relevant measured values have been obtained (mainly 5-30 min). At a given time after KCl application, a fluorescence value F2 is determined, in this case at the time of the fluorescence peak.
# For calculation, the fluorescence intensity F2 is compared with the fluorescence intensity F1, and the agonistic activity of the target compound on the potassium channel is determined therefrom. F2 and F1 are calculated as follows:
# [formula] In order to determine whether a substance has an agonistic activity,
# [formula] for example, can be compared with
# [formula] of control cells.
# [formula] is determined by adding to the reaction batch only the buffer solution instead of the substance to be tested, determining the value F1K of the fluorescence intensity, adding the potassium ions as described above and measuring a value F2K of the fluorescence intensity. Then F2K and F1K are calculated as follows:
# [formula] A substance has an agonistic activity on the potassium channel when
# [formula] is greater than
# [formula] Independently of the comparison of
# [formula] it is also possible to conclude that a target compound has an agonistic activity if an increase in
# [formula] is to be observed as the dosage of the target compound increases. Calculations of EC50 and IC50 values are carried out with the aid of Prism 4 software (GraphPad Software™).
row,Structure (SMILES),activation at 10 µM [%]
1,"COc1ccc(C2CCc3nc(C(=O)N4CCN(c5cccc(C(F)(F)F)c5)CC4)cn3C2)cc1 (stereo not drawn) [Compound 69, (6-(4-Methoxyphenyl)-5,6,7,8-tetrahydroimidazo[1,2-a]pyridin-2-yl)(4-(3-(trifluoromethyl)phenyl)piperazin-1-yl)methanone]",30.1
2,"Cc1cc(C2CCc3nc(C(=O)NC(C)CCc4ccccc4)cn3C2)ccc1F (stereo not drawn) [Compound 72, 6-(4-Fluoro-3-methylphenyl)-N-(4-phenylbutan-2-yl)-5,6,7,8-tetrahydroimidazo[1,2-a]pyridine-2-carboxamide]",103
3,"CCOC(=O)C1CCCN(C(=O)c2cn3c(n2)CCC(c2ccc(Oc4ccccc4)cc2)C3)C1 (stereo not drawn) [Compound 22, Ethyl 1-(6-(4-phenoxyphenyl)-5,6,7,8-tetrahydroimidazo[1,2-a]pyridine-2-carbonyl)piperidine-3-carboxylate]",18
4,"O=C(c1cn2c(n1)CCC(c1cc(F)ccc1F)C2)N1CCCC1 (stereo not drawn) [Compound 36, (6-(2,5-Difluorophenyl)-5,6,7,8-tetrahydroimidazo[1,2-a]pyridin-2-yl)(pyrrolidin-1-yl)methanone]",21.7
5,"Cc1cccc(N2CCN(C(=O)c3cn4c(n3)CCC(c3ccc(F)c(C)c3)C4)CC2)c1 (stereo not drawn) [Compound 65, (6-(4-Fluoro-3-methylphenyl)-5,6,7,8-tetrahydroimidazo[1,2-a]pyridin-2-yl)(4-(3-methylphenyl)piperazin-1-yl)methanone]",132
6,"Cc1cc(C2CCc3nc(C(=O)N4CCC(C(c5ccccc5)c5ccccc5)CC4)cn3C2)ccc1F (stereo not drawn) [Compound 67, (4-Benzhydrylpiperidin-1-yl)(6-(4-fluoro-3-methylphenyl)-5,6,7,8-tetrahydroimidazo[1,2-a]pyridin-2-yl)methanone]",33.3
7,"COc1ccc(F)cc1C1CCc2nc(C(=O)N3CCC(Cc4ccccc4)CC3)cn2C1 (stereo not drawn) [Compound 8, (4-Benzylpiperidin-1-yl)(6-(5-fluoro-2-methoxyphenyl)-5,6,7,8-tetrahydroimidazo[1,2-a]pyridin-2-yl)methanone]",29.1
8,"Cc1ccc(N2CCN(C(=O)c3cn4c(n3)CCC(c3ccc(F)c(C)c3)C4)CC2)cc1 (stereo not drawn) [Compound 64, (6-(4-Fluoro-3-methylphenyl)-5,6,7,8-tetrahydroimidazo[1,2-a]pyridin-2-yl)(4-(4-methylphenyl)piperazin-1-yl)methanone]",46.7
9,"COc1cccc(C2CCc3nc(C(=O)N4CCN(c5cccc(C(F)(F)F)c5)CC4)cn3C2)c1 (stereo not drawn) [Compound 71, (6-(3-Methoxyphenyl)-5,6,7,8-tetrahydroimidazo[1,2-a]pyridin-2-yl)(4-(3-(trifluoromethyl)phenyl)piperazin-1-yl)methanone]",115
10,"O=C(c1cn2c(n1)CCC(c1cccc(C(F)(F)F)c1)C2)N1CCCC1 (stereo not drawn) [Compound 31, Pyrrolidin-1-yl(6-(3-(trifluoromethyl)phenyl)-5,6,7,8-tetrahydroimidazo[1,2-a]pyridin-2-yl)methanone]",17.6
11,"Cc1cccc(C2CCc3nc(C(=O)N4CCN(c5cccc(C(F)(F)F)c5)CC4)cn3C2)c1 (stereo not drawn) [Compound 75, (6-m-Tolyl-5,6,7,8-tetrahydroimidazo[1,2-a]pyridin-2-yl)(4-(3-(trifluoromethyl)phenyl)piperazin-1-yl)methanone]",127

# Second part, the compound after the results:
row,activation at 10 µM [%],Structure (SMILES)
1,40.8,"Cc1cc(C2CCc3nc(C(=O)N4CCN(c5ccc(C(F)(F)F)cc5)CC4)cn3C2)ccc1F (stereo not drawn) [Compound 62, (6-(4-Fluoro-3-methylphenyl)-5,6,7,8-tetrahydroimidazo[1,2-a]pyridin-2-yl)(4-(4-(trifluoromethyl)phenyl)piperazin-1-yl)methanone]"
2,47.9,"Cc1cc(C2CCc3nc(C(=O)NCCC4CCCCC4)cn3C2)ccc1F (stereo not drawn) [Compound 88, N-(2-Cyclohexylethyl)-6-(4-fluoro-3-methylphenyl)-5,6,7,8-tetrahydroimidazo[1,2-a]pyridine-2-carboxamide]"
3,96.7,"Cc1cc(C2CCc3nc(C(=O)N4CCN(c5ccc(F)cc5)CC4)cn3C2)ccc1F (stereo not drawn) [Compound 63, (6-(4-Fluoro-3-methylphenyl)-5,6,7,8-tetrahydroimidazo[1,2-a]pyridin-2-yl)(4-(4-fluorophenyl)piperazin-1-yl)methanone]"
4,15.5,"CCc1ccc(C2CCc3nc(C(=O)N4CCCC4)cn3C2)cc1 (stereo not drawn) [Compound 37, (6-(4-Ethylphenyl)-5,6,7,8-tetrahydroimidazo[1,2-a]pyridin-2-yl)(pyrrolidin-1-yl)methanone]"
5,21.2,"O=C(c1cn2c(n1)CCC(c1cccc(C(F)(F)F)c1)C2)N1CCN(c2ccccc2F)CC1 (stereo not drawn) [Compound 32, (4-(2-Fluorophenyl)piperazin-1-yl)(6-(3-(trifluoromethyl)phenyl)-5,6,7,8-tetrahydroimidazo[1,2-a]pyridin-2-yl)methanone]"

# Same assay, conditions: CHO-K1 cells expressing KCNQ2/3 channels; agonistic activity
row,Structure (SMILES),EC50 [µM]
1,"COc1c(C)cc(C2CCc3nc(C(=O)N4CCN(c5cccc(C(F)(F)F)c5)CC4)cn3C2)cc1C (stereo not drawn) [Compound 54, (6-(4-Methoxy-3,5-dimethylphenyl)-5,6,7,8-tetrahydroimidazo[1,2-a]pyridin-2-yl)(4-(3-(trifluoromethyl)phenyl)piperazin-1-yl)methanone]",2.45
2,"COc1c(C)cc(C2CCc3nc(C(=O)N4CC5(C)CC4CC(C)(C)C5)cn3C2)cc1C (stereo not drawn) [Compound 56, (6-(4-Methoxy-3,5-dimethylphenyl)-5,6,7,8-tetrahydroimidazo[1,2-a]pyridin-2-yl)(1,3,3-trimethyl-6-azabicyclo[3.2.1]octan-6-yl)methanone]",11.3
3,"Cc1cc(C)cc(C2CCc3nc(C(=O)N4CCN(c5cccc(C(F)(F)F)c5)CC4)cn3C2)c1 (stereo not drawn) [Compound 77, (6-(3,5-Dimethylphenyl)-5,6,7,8-tetrahydroimidazo[1,2-a]pyridin-2-yl)(4-(3-(trifluoromethyl)phenyl)piperazin-1-yl)methanone]",0.08

# Now from value to compound:
row,EC50 [µM],Structure (SMILES)
1,6.21,"CCCCNC(=O)c1cn2c(n1)CCC(c1ccc(Oc3ccccc3)cc1)C2 (stereo not drawn) [Compound 19, N-Butyl-6-(4-phenoxyphenyl)-5,6,7,8-tetrahydroimidazo[1,2-a]pyridine-2-carboxamide]"
2,1.2,"Cc1cc(C2CCc3nc(C(=O)NC(C)CCc4cccc(C(F)(F)F)c4)cn3C2)ccc1F (stereo not drawn) [Compound 86, 6-(4-Fluoro-3-methylphenyl)-N-(4-(3-(trifluoromethyl)phenyl)butan-2-yl)-5,6,7,8-tetrahydroimidazo[1,2-a]pyridine-2-carboxamide]"
3,11.6,"CCOC(=O)C1CCN(C(=O)c2cn3c(n2)CCC(c2ccc(Oc4ccccc4)cc2)C3)CC1 (stereo not drawn) [Compound 20, Ethyl 1-(6-(4-phenoxyphenyl)-5,6,7,8-tetrahydroimidazo[1,2-a]pyridine-2-carbonyl)piperidine-4-carboxylate]"
4,5.42,"COc1c(C)cc(C2CCc3nc(C(=O)N4CCC(Cc5ccccc5)CC4)cn3C2)cc1C (stereo not drawn) [Compound 55, (4-Benzylpiperidin-1-yl)(6-(4-methoxy-3,5-dimethylphenyl)-5,6,7,8-tetrahydroimidazo-[1,2-a]pyridin-2-yl)methanone]"
5,5.81,"CC(=O)N1CCN(C(=O)c2cn3c(n2)CCC(c2ccc(Oc4ccccc4)cc2)C3)CC1 (stereo not drawn) [Compound 23, 1-(4-(6-(4-Phenoxyphenyl)-5,6,7,8-tetrahydroimidazo[1,2-a]pyridine-2-carbonyl)piperazin-1-yl)ethanone]"

# Reference: patent US8288424B2, “Substituted tetrahydroimidazopyridine compounds and the use thereof in the treatment of pain and other conditions” (Gruenenthal GmbH, priority 2008, dated 2012)
